Measured values reported in patent publication US20130210034A1, “COMPLEX PHOSPHOPROTEIN ACTIVATION PROFILES” (BECKMAN COULTER, INC., priority 2005, published 2013).

B1: FMS-Like Tyrosine Kinase 3 (FLT-3) ligand (protein, UniProt P49771 27-235, looked up)
Fms-related tyrosine kinase 3 …: TQDCSFQHSPISSDFAVKIRELSDYLLQDYPVTVASNLQDEELCGGLWRLVLAQRWMERLKTVAGSKMQGLLERVNTEIHFVTKCAFQPPPSCLRFVQTNISRLLQETSEQLVALKPWITRQNFSRCLELQCQPDSSTLPPPWSPRPLEATAPTAPQPPLLLLLLLPVGLLLLAAAWCLHWQRTRRRTPRPGEQVPPVPSPQDLLLVEH

Assays:
lymphocytes = experiment: Cytokine response in lymphocytes from bone marrow samples of healthy donors (Example 4); assay type: cell-based, human; conditions: lymphocytes from healthy donor bone marrow (Example 4)
Method: To assess the signal transduction response after growth factor simulation, 100 to 200 μL of processed samples including about 2×10^6 WBC/100 μL were added to tubes and incubated at 37° C. for 30 minutes. For inhibition experiments, cells were incubated with 100 μM U0126, 1 μg/mL rapamycin, or both for at least 20 minutes prior to cytokine addition and in all cases for 30 min prior to formaldehyde addition. […] After stimulation the cells were immediately fixed by the addition of formaldehyde to a final concentration of 4% v/v and incubated for 10 minutes at room temperature. […]
First, doublets, aggregates, and debris were excluded by gating on single cell events in the SSC-Area versus SSC-Height histogram. […] Finally, these cells were further analyzed for cytokine-mediated increases in phosphorylation by constructing gates in the single parameter histograms (for positively and negatively stained events, i.e., for the phosphorylated and non-phosphorylated forms, respectively, of each protein) for pS6 (FIGS. 4D and 4G), pERK (FIGS. 4E and 4H), and pSTAT5 (FIGS. 4F and 4I). […] Following this gating scheme, data were analyzed by calculating the area under the curve (AUC), the frequency of positive-stained cells, and the median fluorescence intensity (MFI).

pAKT = experiment: Cytokine-stimulated phosphorylation in AML cell populations (BM or PB of AML patients); assay type: cell-based, human

Molecule	Phosphorylation response in lymphocytes (lymphocytes)	pAKT, AML Sample (pAKT; patient AML5 (Example 3))	pAKT activation kinetics compared to normal (pAKT; patient AML7 (Example 3), abnormal blasts)	pAKT, AML Sample (pAKT; patient AML11 (Example 3))
Stem Cell Factor [SCF]	lack of SCF's effect	typical upregulation of pAKT	significant delayed activation, and prolonged expression	3.2
B1	no response	8.1	–	–
